From PMC11154460, “Effects of Aqueous Boundary Layers and Paracellular Transport on the Efflux Ratio as a Measure of Active Transport Across Cell Layers” (Pharmaceutics, 2024)
Where two headings read alike, the source gives them in different places.

What was measured:
P-gp (MDR1) [1] = target: T1, P-gp (MDR1) (Homo sapiens, UniProt P08183); experiment: Bi-directional transport (monolayer efflux) study across MDCK-MDR1 cell monolayers; settings: human, HPS conditions; for Papp A→B / Papp B→A: recovery-corrected mean ± SD, n = 3; for recovery: MDCK-MDR1 cell monolayers
Procedure: (§1) As such, for this study, MDCK-II-MDR1 cells transfected with human MDR1 for P-gp expression were obtained from The Netherlands Cancer Institute (Amsterdam, The Netherlands).
(§2) For transport experiments, MDCK-MDR1 cells were used between passages 20 and 40. Cells were seeded onto 12-well PET inserts (CellQART, Northeim, Germany; pore size: 0.4 µm; filter thickness: 11.5 µm) at a density of 1.5 × 10^5 cells/insert. Inserts with a high porosity of 100 × 10^6 pores/cm ​^2 or low porosity of 2 × 10 ​^6 pores/cm ​^2 were used. After seeding, cells were maintained as described in Section 3.1.2 for 4 days to ensure confluent cell monolayer formation. The cell medium was exchanged one day before the transport experiments were performed. Prior to the transport experiments, the inserts were washed with Hank’s balanced salt solution (HBSS) to remove residual DMEM. […] For all other inserts, no inhibitor was used.
(§3) The apical-to-basolateral ( A→B direction) as well as the basolateral-to-apical ( B→A direction) transport rates of the test compounds were determined in duplicate with varying stirring and filter conditions. The three conditions tested were as follows: high-porosity filters, stirred (HPS); high-porosity filters, unstirred (HPU); and low-porosity filters, stirred (LPS). The transport buffer was HBSS with 25 mM HEPES at pH 7.4. Stock solutions were prepared in the transport buffer, and all solutions were pre-warmed to 37 °C. […] The pHs of the buffer and stock solutions prior to the experiment as well as the pHs of all samples after experiment completion were controlled with a rapid pH automated pH meter (Hudson Robotics, Inc., Springfield, NJ, USA). The pHs remained within a range of ±0.15.
(§4) Inserts were used in 12-well plates (TPP Techno Plastic Products AG, Trasadingen, Switzerland), the basolateral compartment volume was 1.6 mL, and the apical compartment volume was 0.5 mL. The transport experiments were initiated by replacing the HBSS with transport buffer and the test compound solution.
(§5) For measurement of transport in the A→B direction: Inserts were placed in 12-well plates containing transport buffer in the basolateral compartment, after which, the test compound solution was added to the apical compartment. At every sampling step, each insert was placed into a new well containing fresh, warmed assay buffer, and the old buffer was sampled. Sampling occurred at four consistent time intervals.
(§6) For measurement of transport in the B→A direction: Inserts were placed in 12-well plates containing the test compound solution in the basolateral compartment (donor), after which, transport buffer was added to the apical compartment. At each sampling time step, 300 μ L was sampled from the apical compartment (the maximum amount that could be removed without disturbing the cell layer) and replaced with an equal volume of warmed, fresh transport buffer. Sampling occurred at four consistent time intervals. Time intervals for sampling were determined uniquely for each compound and direction measured to ensure that sink conditions would be maintained throughout the experiment.

human P-gp [2] = target: T2, human P-gp (Homo sapiens, UniProt P08183); experiment: as above; settings: for ER: HPS conditions
Procedure: as §1, §2, §3, §4, §5, §6

P-gp (MDR1) [3] = target: T1, P-gp (MDR1); experiment: in vitro; settings: for efflux ratio: MDCK-MDR1, pH 7.4, ER (Papp,B→A over Papp,A→B); for efflux ratio / Papp A→B / Papp B→A: pH 7.4 ISO-pH, 12 μM (loperamide 10 μM); for Papp A→B: MDCK-MDR1, pH 7.4, Papp,A→B; for Papp A→B / Papp B→A: recovery-corrected mean ± SD; for Papp B→A: MDCK-MDR1, pH 7.4, Papp,B→A; for recovery: pH 7.4, Recovery, pH 7.4, MDCK-MDR1, 12 μM (loperamide 10 μM)
Procedure: as §1, §2, §3, §4, §5, §6

human P-gp [4] = target: T2, human P-gp; settings: MDCK-MDR1, pH 7.4
Procedure: as §1, §2, §3, §4, §5, §6

[5] = HPS: high-porosity filter, stirred
[6] = HPU: high-porosity filter, unstirred
[7] = LPS: low-porosity filter, stirred

T2 sequence (P08183 whole entry): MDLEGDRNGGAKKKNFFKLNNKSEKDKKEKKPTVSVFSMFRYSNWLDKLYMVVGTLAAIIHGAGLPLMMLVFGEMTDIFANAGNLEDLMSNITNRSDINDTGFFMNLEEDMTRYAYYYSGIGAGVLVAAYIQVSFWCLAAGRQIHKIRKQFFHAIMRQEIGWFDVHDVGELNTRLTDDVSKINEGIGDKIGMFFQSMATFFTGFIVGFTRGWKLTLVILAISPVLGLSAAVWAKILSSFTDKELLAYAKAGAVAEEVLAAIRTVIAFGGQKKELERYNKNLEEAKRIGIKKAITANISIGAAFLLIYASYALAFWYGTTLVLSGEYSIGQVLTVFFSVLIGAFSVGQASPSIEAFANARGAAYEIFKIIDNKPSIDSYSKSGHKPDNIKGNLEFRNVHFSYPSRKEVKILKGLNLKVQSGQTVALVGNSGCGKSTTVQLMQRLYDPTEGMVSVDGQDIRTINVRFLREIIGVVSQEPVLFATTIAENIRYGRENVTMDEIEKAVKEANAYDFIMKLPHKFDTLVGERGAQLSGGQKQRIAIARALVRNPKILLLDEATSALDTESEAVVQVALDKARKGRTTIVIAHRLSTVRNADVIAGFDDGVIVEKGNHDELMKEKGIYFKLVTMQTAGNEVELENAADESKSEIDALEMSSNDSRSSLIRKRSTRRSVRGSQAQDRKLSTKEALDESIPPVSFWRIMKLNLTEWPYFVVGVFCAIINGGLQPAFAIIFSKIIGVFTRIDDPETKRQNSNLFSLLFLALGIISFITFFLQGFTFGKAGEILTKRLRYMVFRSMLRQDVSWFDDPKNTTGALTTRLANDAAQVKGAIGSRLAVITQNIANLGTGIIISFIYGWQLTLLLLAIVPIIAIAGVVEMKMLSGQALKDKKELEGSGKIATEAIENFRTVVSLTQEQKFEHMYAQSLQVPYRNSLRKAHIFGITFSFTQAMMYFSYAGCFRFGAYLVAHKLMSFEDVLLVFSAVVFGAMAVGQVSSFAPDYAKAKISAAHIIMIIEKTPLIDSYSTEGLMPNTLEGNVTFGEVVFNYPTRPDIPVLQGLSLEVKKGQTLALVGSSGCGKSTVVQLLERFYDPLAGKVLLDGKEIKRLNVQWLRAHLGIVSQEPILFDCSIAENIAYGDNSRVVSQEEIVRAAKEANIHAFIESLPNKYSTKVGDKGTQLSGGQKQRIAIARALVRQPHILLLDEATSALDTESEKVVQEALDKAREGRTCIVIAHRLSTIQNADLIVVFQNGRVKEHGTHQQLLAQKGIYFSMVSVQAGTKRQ
T1 sequence (P08183 whole entry): as above

COc1cccc2c1C(=O)c1c(O)c3c(c(O)c1C2=O)C[C@@](O)(C(=O)CO)C[C@@H]3O[C@H]1C[C@H](N)[C@H](O)[C@H](C)O1 [Doxorubicin, doxorubicin] gave an efflux ratio (P-gp (MDR1) [1]; MDCK-MDR1, pH 6, ER, pHext 6 (ISO-pH)) of 1.6, a Papp A→B (P-gp (MDR1) [1]; MDCK-MDR1, pH 6, Papp,A→B, pHext 6 (ISO-pH)) of 1.4 ± 0.4 nm/s and a Papp B→A (P-gp (MDR1) [1]; MDCK-MDR1, pH 6, Papp,B→A, pHext 6 (ISO-pH)) of 2.3 ± 0.8 nm/s. The Papp A→B (P-gp (MDR1) [1]; MDCK-MDR1, pH 7, Papp,A→B, pHext 7 (ISO-pH)) was 1.2 ± 0.3 nm/s, the Papp B→A (P-gp (MDR1) [1]; MDCK-MDR1, pH 7, Papp,B→A, pHext 7 (ISO-pH)) was 7.8 ± 3.6 nm/s and the recovery (P-gp (MDR1) [1]; pH 6, Recovery, pHext 6 (ISO-pH)) was 89.3 to 95.3%. For the same compound, the recovery (P-gp (MDR1) [1]; pH 7, Recovery, pHext 7 (ISO-pH)) was 87.8 to 93.1%, the ER (human P-gp [2]; pHext 6 (ISO-pH)) was “one” and the ER (human P-gp [2]; pHext 7 (ISO-pH)) was 6.5. For the same compound, the ER (human P-gp [2]; pHext 7 (ISO-pH), listed as doxorubicin) was greater than 2.
CN(C)C(=O)C(CCN1CCC(O)(c2ccc(Cl)cc2)CC1)(c1ccccc1)c1ccccc1 [Loperamide, loperamide] was tested, and the efflux ratio (P-gp (MDR1) [3]; [5]) was 2.7 ± 0.73, the efflux ratio (P-gp (MDR1) [3]; [6]) was 2.8 ± 0.87 and the efflux ratio (P-gp (MDR1) [3]; [7]) was 3.2 ± 0.91. For the same compound, the Papp A→B (P-gp (MDR1) [3]; [5]) was 467 ± 50.3 nm/s, the Papp A→B (P-gp (MDR1) [3]; [6]) was 98 ± 28.4 nm/s and the Papp A→B (P-gp (MDR1) [3]; [7]) was 56.5 ± 4.2 nm/s. The Papp B→A (P-gp (MDR1) [3]; [5]) was 1260 ± 278 nm/s, the Papp B→A (P-gp (MDR1) [3]; [6]) was 292 ± 33.1 nm/s and the Papp B→A (P-gp (MDR1) [3]; [7]) was 159 ± 42.4 nm/s. For the same compound, the recovery (P-gp (MDR1) [3]; [5]) was 75 to 88.1%, the recovery (P-gp (MDR1) [3]; [6]) was 62.3 to 81.3% and the recovery (P-gp (MDR1) [3]; [7]) was 69.2 to 86.1%. For the same compound, the “mean ERs” value (human P-gp [4]) was “greater than two”.
With C=C[C@H]1C[N@@]2CC[C@H]1C[C@@H]2[C@@H](O)c1ccnc2ccc(OC)cc12 [Quinidine, quinidine] the “mean ERs” value (human P-gp [2]; over the conditions HPS, LPS, HPU, pH 7.4) was “greater than two”.
